Values of other authors, collected in patent US20080064711A1, “Composition for treating oral cavity and Mucousal infections” (J.P.M.E.D. LTD., priority 2002, published 2008).

How the values were obtained:
[1] = system: human keratinocyte and fibroblast cultures; conditions: Ponec et al. J Pharm Sci 1990
[2] = system: Gram negative bacteria that tend to colonize the oral cavity; conditions: patients undergoing radiation therapy; Spijkervet et al., 1990

| SMILES | Cytotoxicity to human keratinocyte and fibroblast cultures [1] | Effectiveness against Gram negative bacteria colonizing the oral cavity [2] |
| --- | --- | --- |
| CCO [Ethanol] | cytotoxic |  |
| [H]/N=C(\N/C(=N/[H])NCCCCCCNC(=N)NC(=N)Nc1ccc(Cl)cc1)Nc1ccc(Cl)cc1 [chlorhexidine] |  | relatively ineffective |
| CN(C)C=O [dimethylformamide] | cytotoxic |  |
| C[S+](C)[O-] [dimethylsulfoxide] | cytotoxic |  |
| CC(O)CO (centres unmarked) [propylene glycol] | cytotoxic |  |
